According to ChEMBL document CHEMBL3885861, “Open TG-GATES”:

Species: Rattus norvegicus
Experiment: Open TG-GATES - Regimen: Single
Format: toxicity, organism-based, Sprague-Dawley
Design: regimen Single, gender Male, age 6 weeks
Settings: in vivo, po, route gavage; for APTT / Bas / Eos / Fbg / Hb / Ht / Lym / MCH / MCHC / MCV / Mono / Neu / PT / Plat / RBC / Ret / WBC: tissue Blood; for KIDNEY_L / KIDNEY_R / KIDNEY_TOTAL: tissue Kidney; for LIVER: tissue Liver; for A/G / ALP / ALT / AST / BUN / CRE / Ca / Cl / DBIL / GLC / IP / K / LDH / Na / PL / RALB / TBIL / TC / TG / TP / gamma-GTP: tissue Plasma
[1] = 0 mg/kg, 3 h, dose level Control
[2] = 0 mg/kg, 6 h, dose level Control
[3] = 0 mg/kg, 9 h, dose level Control
[4] = 0 mg/kg, 24 h, dose level Control

## Brc1ccccc1 [BROMOBENZENE]
[1]
  TERMINAL_BW: 190.9 g
  APTT: 15.7 s
  Bas: 0.2%
  Eos: 0.8%
  Fbg: 247.4 mg/dL
  Hb: 13.1 g/dL
  Ht: 39.4%
  Lym: 72.8%
  MCH: 21.2 pg
  MCHC: 33.2%
  MCV: 63.8 fL
  Mono: 4.2%
  Neu: 21.6%
  PT: 12.4 s
  Plat: 117.7 x10_4/uL
  RBC: 618.4 x10_4/ul
  Ret: 9.8%
  WBC: 108.2 x10_2/uL
  KIDNEY_L: 0.9 g
  KIDNEY_R: 0.8 g
  KIDNEY_TOTAL: 1.7 g
  LIVER: 8.1 g
  A/G: 0.9
  ALP: 1539.4 IU/L
  ALT: 46.2 IU/L
  AST: 83.2 IU/L
  BUN: 10.2 mg/dL
  CRE: 0.2 mg/dL
  Ca: 11.2 mg/dL
  Cl: 106.2 meq/L
  DBIL: 0.022 mg/dL
  GLC: 186.4 mg/dL
  IP: 9.4 mg/dL
  K: 3.8 meq/L
  LDH: 84.2 IU/L
  Na: 141.6 meq/L
  PL: 159.2 mg/dL
  RALB: 2.6 g/dL
  TBIL: 0.058 mg/dL
  TC: 83.6 mg/dL
  TG: 88.4 mg/dL
  TP: 5.5 g/dL
  gamma-GTP: 2 IU/L
[2]
  TERMINAL_BW: 191.8 g
  APTT: 15.7 s
  Bas: 0%
  Eos: 1%
  Fbg: 276.2 mg/dL
  Hb: 13 g/dL
  Ht: 39.1%
  Lym: 75.8%
  MCH: 21.4 pg
  MCHC: 33.3%
  MCV: 64.3 fL
  Mono: 3.8%
  Neu: 19.2%
  PT: 12.4 s
  Plat: 109.8 x10_4/uL
  RBC: 608.2 x10_4/ul
  Ret: 9.3%
  WBC: 92.3 x10_2/uL
  KIDNEY_L: 0.8 g
  KIDNEY_R: 0.8 g
  KIDNEY_TOTAL: 1.6 g
  LIVER: 7.6 g
  A/G: 0.9
  ALP: 1707 IU/L
  ALT: 40.8 IU/L
  AST: 76.6 IU/L
  BUN: 9.2 mg/dL
  CRE: 0.2 mg/dL
  Ca: 11 mg/dL
  Cl: 107.4 meq/L
  DBIL: 0.01 mg/dL
  GLC: 184.2 mg/dL
  IP: 10 mg/dL
  K: 4 meq/L
  LDH: 69.6 IU/L
  Na: 141.4 meq/L
  PL: 149.2 mg/dL
  RALB: 2.6 g/dL
  TBIL: 0.054 mg/dL
  TC: 83.2 mg/dL
  TG: 37.8 mg/dL
  TP: 5.5 g/dL
  gamma-GTP: 1.2 IU/L
[3]
  TERMINAL_BW: 191.1 g
  APTT: 15.4 s
  Bas: 0%
  Eos: 1%
  Fbg: 258.4 mg/dL
  Hb: 12.9 g/dL
  Ht: 38.8%
  Lym: 74.8%
  MCH: 21.5 pg
  MCHC: 33.4%
  MCV: 64.4 fL
  Mono: 3%
  Neu: 21.2%
  PT: 12.3 s
  Plat: 120.5 x10_4/uL
  RBC: 603 x10_4/ul
  Ret: 9.6%
  WBC: 75.5 x10_2/uL
  KIDNEY_L: 0.8 g
  KIDNEY_R: 0.8 g
  KIDNEY_TOTAL: 1.6 g
  LIVER: 7.4 g
  A/G: 0.9
  ALP: 1515.4 IU/L
  ALT: 36.2 IU/L
  AST: 70.2 IU/L
  BUN: 11.4 mg/dL
  CRE: 0.2 mg/dL
  Ca: 10.8 mg/dL
  Cl: 105.8 meq/L
  DBIL: 0.006 mg/dL
  GLC: 193.4 mg/dL
  IP: 11.8 mg/dL
  K: 3.6 meq/L
  LDH: 81.2 IU/L
  Na: 143.2 meq/L
  PL: 146.8 mg/dL
  RALB: 2.6 g/dL
  TBIL: 0.052 mg/dL
  TC: 84.2 mg/dL
  TG: 39.6 mg/dL
  TP: 5.6 g/dL
  gamma-GTP: 1.4 IU/L
[4]
  TERMINAL_BW: 196.6 g
  APTT: 15.4 s
  Bas: 0%
  Eos: 1%
  Fbg: 270.2 mg/dL
  Hb: 12.6 g/dL
  Ht: 37.4%
  Lym: 74.6%
  MCH: 21.1 pg
  MCHC: 33.8%
  MCV: 62.6 fL
  Mono: 3.4%
  Neu: 19.8%
  PT: 12.3 s
  Plat: 114.7 x10_4/uL
  RBC: 598.2 x10_4/ul
  Ret: 8.1%
  WBC: 81.7 x10_2/uL
  KIDNEY_L: 0.8 g
  KIDNEY_R: 0.8 g
  KIDNEY_TOTAL: 1.7 g
  LIVER: 8.7 g
  A/G: 0.9
  ALP: 1600.6 IU/L
  ALT: 50.8 IU/L
  AST: 79.6 IU/L
  BUN: 14.2 mg/dL
  CRE: 0.2 mg/dL
  Ca: 10.5 mg/dL
  Cl: 105.2 meq/L
  DBIL: 0.004 mg/dL
  GLC: 187.4 mg/dL
  IP: 8 mg/dL
  K: 4.2 meq/L
  LDH: 114.4 IU/L
  Na: 141.4 meq/L
  PL: 136.8 mg/dL
  RALB: 2.6 g/dL
  TBIL: 0.04 mg/dL
  TC: 76.8 mg/dL
  TG: 55.4 mg/dL
  TP: 5.5 g/dL
  gamma-GTP: 1.4 IU/L
30 mg/kg, 3 h, dose level Low
  TERMINAL_BW: 190.8 g
  APTT: 14.7 s
  Bas: 0%
  Eos: 0.8%
  Fbg: 276.2 mg/dL
  Hb: 12.9 g/dL
  Ht: 38.6%
  Lym: 77%
  MCH: 21.7 pg
  MCHC: 33.6%
  MCV: 64.5 fL
  Mono: 3%
  Neu: 18.4%
  PT: 12.3 s
  Plat: 116 x10_4/uL
  RBC: 597.6 x10_4/ul
  Ret: 9.5%
  WBC: 95.3 x10_2/uL
  KIDNEY_L: 0.8 g
  KIDNEY_R: 0.8 g
  KIDNEY_TOTAL: 1.6 g
  LIVER: 7.9 g
  A/G: 0.9
  ALP: 1807.2 IU/L
  ALT: 47.6 IU/L
  AST: 80 IU/L
  BUN: 11 mg/dL
  CRE: 0.2 mg/dL
  Ca: 11.4 mg/dL
  Cl: 106.2 meq/L
  DBIL: 0.024 mg/dL
  GLC: 182 mg/dL
  IP: 9.4 mg/dL
  K: 4 meq/L
  LDH: 75.6 IU/L
  Na: 141.6 meq/L
  PL: 174.2 mg/dL
  RALB: 2.6 g/dL
  TBIL: 0.056 mg/dL
  TC: 93.6 mg/dL
  TG: 80.6 mg/dL
  TP: 5.7 g/dL
  gamma-GTP: 1.2 IU/L
30 mg/kg, 6 h, dose level Low
  TERMINAL_BW: 192.5 g
  APTT: 15.9 s
  Bas: 0%
  Eos: 1%
  Fbg: 250 mg/dL
  Hb: 12.8 g/dL
  Ht: 38.3%
  Lym: 78.6%
  MCH: 21.7 pg
  MCHC: 33.3%
  MCV: 65 fL
  Mono: 3.4%
  Neu: 16.6%
  PT: 12.6 s
  Plat: 110.6 x10_4/uL
  RBC: 590.4 x10_4/ul
  Ret: 9.4%
  WBC: 105.9 x10_2/uL
  KIDNEY_L: 0.8 g
  KIDNEY_R: 0.8 g
  KIDNEY_TOTAL: 1.6 g
  LIVER: 7.4 g
  A/G: 0.9
  ALP: 1769.6 IU/L
  ALT: 41 IU/L
  AST: 75.8 IU/L
  BUN: 10.6 mg/dL
  CRE: 0.2 mg/dL
  Ca: 11.1 mg/dL
  Cl: 107.2 meq/L
  DBIL: 0.018 mg/dL
  GLC: 180.8 mg/dL
  IP: 10.3 mg/dL
  K: 3.9 meq/L
  LDH: 71.2 IU/L
  Na: 141.8 meq/L
  PL: 139.2 mg/dL
  RALB: 2.5 g/dL
  TBIL: 0.058 mg/dL
  TC: 74.6 mg/dL
  TG: 53 mg/dL
  TP: 5.3 g/dL
  gamma-GTP: 1.4 IU/L
30 mg/kg, 9 h, dose level Low
  TERMINAL_BW: 193.2 g
  APTT: 15.6 s
  Bas: 0%
  Eos: 1%
  Fbg: 262.2 mg/dL
  Hb: 13.3 g/dL
  Ht: 39.4%
  Lym: 70.8%
  MCH: 21.5 pg
  MCHC: 33.7%
  MCV: 64 fL
  Mono: 3.2%
  Neu: 24.6%
  PT: 12.7 s
  Plat: 118.3 x10_4/uL
  RBC: 617.2 x10_4/ul
  Ret: 9%
  WBC: 92.1 x10_2/uL
  KIDNEY_L: 0.8 g
  KIDNEY_R: 0.8 g
  KIDNEY_TOTAL: 1.6 g
  LIVER: 7 g
  A/G: 0.9
  ALP: 1907.6 IU/L
  ALT: 41.2 IU/L
  AST: 73.4 IU/L
  BUN: 10.2 mg/dL
  CRE: 0.1 mg/dL
  Ca: 10.7 mg/dL
  Cl: 106.2 meq/L
  DBIL: 0.016 mg/dL
  GLC: 189.6 mg/dL
  IP: 11.5 mg/dL
  K: 3.9 meq/L
  LDH: 72.8 IU/L
  Na: 142.2 meq/L
  PL: 136.8 mg/dL
  RALB: 2.5 g/dL
  TBIL: 0.058 mg/dL
  TC: 79.6 mg/dL
  TG: 41.6 mg/dL
  TP: 5.3 g/dL
  gamma-GTP: 1.6 IU/L
30 mg/kg, 24 h, dose level Low
  TERMINAL_BW: 199 g
  APTT: 15.2 s
  Bas: 0%
  Eos: 1.2%
  Fbg: 248.6 mg/dL
  Hb: 12.7 g/dL
  Ht: 37.2%
  Lym: 71.6%
  MCH: 21.4 pg
  MCHC: 34%
  MCV: 63.1 fL
  Mono: 3.4%
  Neu: 23.6%
  PT: 12.3 s
  Plat: 117.9 x10_4/uL
  RBC: 589.2 x10_4/ul
  Ret: 8.2%
  WBC: 96.4 x10_2/uL
  KIDNEY_L: 0.8 g
  KIDNEY_R: 0.8 g
  KIDNEY_TOTAL: 1.7 g
  LIVER: 9.2 g
  A/G: 0.9
  ALP: 1811.4 IU/L
  ALT: 52.8 IU/L
  AST: 78.8 IU/L
  BUN: 15.4 mg/dL
  CRE: 0.2 mg/dL
  Ca: 10.4 mg/dL
  Cl: 106.2 meq/L
  DBIL: 0.012 mg/dL
  GLC: 196.8 mg/dL
  IP: 8.1 mg/dL
  K: 4.2 meq/L
  LDH: 112.6 IU/L
  Na: 141.6 meq/L
  PL: 137.4 mg/dL
  RALB: 2.5 g/dL
  TBIL: 0.05 mg/dL
  TC: 71.8 mg/dL
  TG: 79.4 mg/dL
  TP: 5.4 g/dL
  gamma-GTP: 0.8 IU/L
